Measured values taken from PubChem BioAssay AID248 (DTP/NCI, 2004).
Toxic doses and inconclusive results are not listed. Cut-off read from the data, not from the text of the source: active = T/C of 150% or more; inactive = T/C below 125%.

System: L1210 leukemia ip in BDF1 mice, survival T/C
Test: NCI In Vivo Anticancer Drug Screen. Data for tumor model L1210 Leukemia (intraperitoneal) in B6D2F1 (BDF1) mice
Settings: endpoint: mean survival time, higher = longer survival
Outline: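 Each compound was tested against a transplantable tumor grown in mice. The endpoint was survival, with treated animals benchmarked against vehicle controls as a simple ratio.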

[1] = dose: 12.5 mg/kg/injection, schedule: Q01DX009 (ip), vehicle: saline
[2] = dose: 25.0 mg/kg/injection, schedule: Q01DX009 (ip), vehicle: saline
[3] = dose: 50.0 mg/kg/injection, schedule: Q01DX009 (ip), vehicle: saline
[4] = dose: 100.0 mg/kg/injection, schedule: Q04DX003 (ip), vehicle: saline
[5] = dose: 100.0 mg/kg/injection, schedule: Q01DX001 (ip), vehicle: carboxymethylcellulose (CMC)
[6] = dose: 200.0 mg/kg/injection, schedule: Q01DX001 (ip), vehicle: carboxymethylcellulose (CMC)
[7] = dose: 400.0 mg/kg/injection, schedule: Q01DX001 (ip), vehicle: carboxymethylcellulose (CMC)
[8] = dose: 25.0 mg/kg/injection, schedule: Q04DX003 (ip), vehicle: saline with Tween-80
[9] = dose: 100.0 mg/kg/injection, schedule: Q01DX009 (ip), vehicle: Klucel (hydroxypropylcellulose) (HPC)
[10] = dose: 200.0 mg/kg/injection, schedule: Q01DX009 (ip), vehicle: Klucel (hydroxypropylcellulose) (HPC)
[11] = dose: 400.0 mg/kg/injection, schedule: Q01DX009 (ip), vehicle: Klucel (hydroxypropylcellulose) (HPC)
[12] = dose: 100.0 mg/kg/injection, schedule: Q04DX003 (ip), vehicle: Klucel (hydroxypropylcellulose) (HPC)
[13] = dose: 200.0 mg/kg/injection, schedule: Q04DX003 (ip), vehicle: Klucel (hydroxypropylcellulose) (HPC)
[14] = dose: 400.0 mg/kg/injection, schedule: Q04DX003 (ip), vehicle: Klucel (hydroxypropylcellulose) (HPC)
[15] = dose: 100.0 mg/kg/injection, schedule: Q01DX009 (ip), vehicle: saline
[16] = dose: 200.0 mg/kg/injection, schedule: Q01DX009 (ip), vehicle: saline
[17] = dose: 200.0 mg/kg/injection, schedule: Q04DX003 (ip), vehicle: saline
[18] = dose: 400.0 mg/kg/injection, schedule: Q04DX003 (ip), vehicle: saline
[19] = dose: 100.0 mg/kg/injection, schedule: Q01DX009 (ip), vehicle: saline with Tween-80
[20] = dose: 100.0 mg/kg/injection, schedule: Q04DX003 (ip), vehicle: saline with Tween-80
[21] = dose: 100.0 mg/kg/injection, schedule: Q01DX001 (ip), vehicle: saline
[22] = dose: 200.0 mg/kg/injection, schedule: Q01DX001 (ip), vehicle: saline
[23] = dose: 50.0 mg/kg/injection, schedule: Q01DX001 (ip), vehicle: carboxymethylcellulose (CMC)
[24] = dose: 200.0 mg/kg/injection, schedule: Q04DX003 (ip), vehicle: saline with Tween-80
[25] = dose: 400.0 mg/kg/injection, schedule: Q04DX003 (ip), vehicle: saline with Tween-80

Measured: T/C

CCCCCCCCCCCCCCCC[N+]1([O-])CCOCC1
inactive: [1] 96 % of control | [2] 102 % of control | [3] 98 % of control

CC[N+](CC)(CC)CCOC(=O)C1C2CC3OC(=O)C1C3C2 (configuration not stated)
inactive: [4] 96 % of control

CC1(C)N=C(N)N=C(N)N1c1ccc(OCC(=O)Nc2ccc(S(=O)(=O)F)cc2)cc1
inactive: dose: 0.8 mg/kg/injection, schedule: Q01DX009 (ip), vehicle: saline 101 % of control | dose: 4.0 mg/kg/injection, schedule: Q01DX009 (ip), vehicle: saline 103 % of control | dose: 20.0 mg/kg/injection, schedule: Q01DX009 (ip), vehicle: saline 112 % of control

CC(=O)Nc1cc2c(cc1[N+](=O)[O-])-c1ccccc1/C2=N\O
inactive: [5] 106 % of control | [6] 94 % of control | [7] 111 % of control

CC(=O)Nc1ccc(C=O)s1
inactive: [5] 97 % of control | [6] 94 % of control | [7] 103 % of control

CC1CCCC(C)N1CC(O)c1ccccc1 (configuration not stated)
inactive: dose: 6.25 mg/kg/injection, schedule: Q04DX003 (ip), vehicle: saline with Tween-80 94 % of control | dose: 12.5 mg/kg/injection, schedule: Q04DX003 (ip), vehicle: saline with Tween-80 97 % of control | [8] 97 % of control

C(/C=N/Nc1cnccn1)=N\Nc1cnccn1
inactive: [9] 89 % of control | [10] 89 % of control | [11] 110 % of control

Nc1ccc(CCc2nc(N)nc(N)c2-c2ccc(Cl)cc2)cc1
inactive: [12] 106 % of control | [13] 104 % of control | [14] 101 % of control

Cc1cc(Cl)cc(C)c1OC(=O)Nc1ccccc1C(F)(F)F
inactive: [15] 98 % of control | [16] 91 % of control | dose: 400.0 mg/kg/injection, schedule: Q01DX009 (ip), vehicle: saline 112 % of control

O=C(O)c1ccccc1Oc1ccccc1C(=O)O
inactive: [4] 102 % of control | [17] 100 % of control | [18] 91 % of control

O=C(COc1ccc([N+](=O)[O-])cc1Cl)Nc1cccc(S(=O)(=O)F)c1
inactive: [12] 98 % of control | [13] 106 % of control | [14] 91 % of control

CCCC(C(=O)O)C1=CCCC1 (configuration not stated)
inactive: [19] 88 % of control | [4] 98 % of control | [17] 103 % of control | [18] 101 % of control

COc1cccc(/C(C)=N\NC(=O)c2ccccc2)c1
inactive: [8] 88 % of control | dose: 50.0 mg/kg/injection, schedule: Q04DX003 (ip), vehicle: saline with Tween-80 90 % of control | [20] 92 % of control

COC1=CC(=O)C=CC1=O
inactive: dose: 1.5 mg/kg/injection, schedule: Q01DX009 (ip), vehicle: saline 90 % of control | dose: 3.0 mg/kg/injection, schedule: Q01DX009 (ip), vehicle: saline 88 % of control | dose: 6.0 mg/kg/injection, schedule: Q01DX009 (ip), vehicle: saline 90 % of control

Cc1ccc(C)c(NS(=O)(=O)c2ccc(Cl)c([N+](=O)[O-])c2)c1
inactive: [9] 110 % of control | [10] 105 % of control | [11] 107 % of control

O=C(O)c1ccccc1C(=O)NCc1ccco1
inactive: dose: 50.0 mg/kg/injection, schedule: Q01DX001 (ip), vehicle: other 94 % of control | dose: 100.0 mg/kg/injection, schedule: Q01DX001 (ip), vehicle: other 105 % of control | dose: 200.0 mg/kg/injection, schedule: Q01DX001 (ip), vehicle: other 105 % of control | dose: 400.0 mg/kg/injection, schedule: Q01DX001 (ip), vehicle: other 100 % of control

O=C1c2cc(F)ccc2-c2cc([N+](=O)[O-])ccc21
inactive: [5] 94 % of control | [6] 94 % of control | [7] 99 % of control

CCCCN1CSC(=S)N(CCCC)C1
inactive: dose: 100.0 mg/kg/injection, schedule: Q04DX002 (ip), vehicle: saline with Tween-80 100 % of control | dose: 200.0 mg/kg/injection, schedule: Q04DX002 (ip), vehicle: saline with Tween-80 93 % of control | dose: 400.0 mg/kg/injection, schedule: Q04DX002 (ip), vehicle: saline with Tween-80 105 % of control

CCCc1cc(=O)[nH]c(=S)[nH]1
inactive: [12] 93 % of control | [13] 96 % of control | [14] 101 % of control

O=C(O)c1ccc(Br)s1
inactive: [21] 97 % of control | [22] 99 % of control

c1ccc2sc(SSN3CCOCC3)nc2c1
inactive: dose: 50.0 mg/kg/injection, schedule: Q01DX009 (ip), vehicle: Klucel (hydroxypropylcellulose) (HPC) 97 % of control | [9] 113 % of control | [4] 101 % of control | [10] 91 % of control | [17] 92 % of control

O=C1CCC(c2ccccc2)=NN1
inactive: [12] 93 % of control | [13] 95 % of control | [14] 106 % of control

CC(C)(C)C1CCC2(CC1)CC(=O)N(N1CCCCCC1)C(=O)C2
inactive: [23] 95 % of control | [5] 101 % of control | [6] 95 % of control | [7] 104 % of control

O=C(O)COc1cc(Cl)c(Cl)cc1Cl
inactive: [23] 102 % of control | [5] 106 % of control | [20] 100 % of control | [6] 112 % of control | [24] 103 % of control | [7] 108 % of control | [25] 100 % of control

O=S1(=O)C(Cl)(Cl)SC(Cl)(Cl)S(=O)(=O)C1(Cl)Cl
inactive: [1] 101 % of control | [2] 93 % of control | [3] 101 % of control | dose: 50.0 mg/kg/injection, schedule: Q04DX003 (ip), vehicle: saline 93 % of control | [21] 96 % of control | [22] 98 % of control

CN(C(=O)N(CCCl)N=O)c1ccccc1
inactive: [5] 104 % of control | [6] 104 % of control | [7] 105 % of control

CCOP(=O)(OCC)c1cccc(N)c1
inactive: [4] 100 % of control | [17] 87 % of control | [18] 100 % of control

CC1C/C(=C\NC(N)=O)C(=O)O1 (configuration not stated)
inactive: dose: 100.0 mg/kg/injection, schedule: Q01DX009 (ip), vehicle: water 96 % of control | dose: 100.0 mg/kg/injection, schedule: Q04DX003 (ip), vehicle: water 94 % of control | dose: 200.0 mg/kg/injection, schedule: Q01DX009 (ip), vehicle: water 100 % of control | dose: 200.0 mg/kg/injection, schedule: Q04DX003 (ip), vehicle: water 89 % of control | dose: 400.0 mg/kg/injection, schedule: Q01DX009 (ip), vehicle: water 102 % of control | dose: 400.0 mg/kg/injection, schedule: Q04DX003 (ip), vehicle: water 96 % of control

CCC(=O)c1ccc(OC(C)=O)cc1
inactive: dose: 222.0 mg/kg/injection, schedule: Q01DX Z (ip), vehicle: carboxymethylcellulose (CMC) 100 % of control | dose: 333.0 mg/kg/injection, schedule: Q01DX Z (ip), vehicle: carboxymethylcellulose (CMC) 118 % of control | dose: 500.0 mg/kg/injection, schedule: Q01DX Z (ip), vehicle: carboxymethylcellulose (CMC) 108 % of control

C/C(O)=C/c1cc(N2CCCCC2)nc(=S)[nH]1
inactive: [12] 102 % of control | [13] 100 % of control | [14] 100 % of control

Cc1c[nH]c(=O)c[n+]1[O-]
inactive: [4] 97 % of control | [17] 100 % of control | [18] 100 % of control

C[N+](C)(C)CC(=O)[O-]
inactive: [15] 108 % of control | [4] 103 % of control | [16] 91 % of control | [17] 94 % of control

O=C(O)COc1ccc(F)c(Cl)c1
inactive: dose: 100.0 mg/kg/injection, schedule: Q04DX002 (ip), vehicle: saline 105 % of control | dose: 200.0 mg/kg/injection, schedule: Q04DX002 (ip), vehicle: saline 117 % of control | dose: 400.0 mg/kg/injection, schedule: Q04DX002 (ip), vehicle: saline 110 % of control

NC(CC(=O)O)c1nn[nH]n1 (configuration not stated)
inactive: [19] 102 % of control | [20] 105 % of control | dose: 200.0 mg/kg/injection, schedule: Q01DX009 (ip), vehicle: saline with Tween-80 98 % of control | [24] 102 % of control | [25] 103 % of control
